Data reported in patent publication US11434232B2, “ATR inhibitor and application thereof” (WUXI BIOCITY BIOPHARMACEUTICS CO., LTD., priority 2018, dated 2022).

Assays:
[1] = Pharmacokinetic properties in vivo in female Balb/c Nude mice; set-up: species or system mouse
Protocol: Experimental method: The purpose of this study was to determine the pharmacokinetic parameters of the compounds and calculate the oral bioavailability in female Balb/c Nude mice.
The project involved 6 female Balb/c Nude mice. 3 mice were administered intravenously at a dose of 1 mg/kg, and plasma samples were collected at 0 h (before administration) and 0.0833, 0.25, 0.5, 1, 2, 4, 6, 8 and 24 h after administration, other 3 mice were given by oral gavage at a dose of 10 mg/kg or 25 mg/kg, and plasma samples were collected at 0 h (before dosing) and 0.5, 1, 2, 3, 4, 6, 8, 24 h after administration. Then LC/MS/MS analysis was performed for the collected samples and data was collected. The collected analysis data was calculated for relevant pharmacokinetic parameters with Phoenix WinNonlin 6.2.1 software.

human ATR kinase = human ATR kinase (Homo sapiens (Human), UniProt Q13535); experiment: In vitro evaluation of inhibitory activity on human ATR kinase (HTRF, ATR/ATRIP(h), GST-cMyc-p53 substrate); format: biochemical; settings: 50 nM GST-cMyc-p53, 30 min room temperature
Chain of human ATR kinase (Q13535 whole entry): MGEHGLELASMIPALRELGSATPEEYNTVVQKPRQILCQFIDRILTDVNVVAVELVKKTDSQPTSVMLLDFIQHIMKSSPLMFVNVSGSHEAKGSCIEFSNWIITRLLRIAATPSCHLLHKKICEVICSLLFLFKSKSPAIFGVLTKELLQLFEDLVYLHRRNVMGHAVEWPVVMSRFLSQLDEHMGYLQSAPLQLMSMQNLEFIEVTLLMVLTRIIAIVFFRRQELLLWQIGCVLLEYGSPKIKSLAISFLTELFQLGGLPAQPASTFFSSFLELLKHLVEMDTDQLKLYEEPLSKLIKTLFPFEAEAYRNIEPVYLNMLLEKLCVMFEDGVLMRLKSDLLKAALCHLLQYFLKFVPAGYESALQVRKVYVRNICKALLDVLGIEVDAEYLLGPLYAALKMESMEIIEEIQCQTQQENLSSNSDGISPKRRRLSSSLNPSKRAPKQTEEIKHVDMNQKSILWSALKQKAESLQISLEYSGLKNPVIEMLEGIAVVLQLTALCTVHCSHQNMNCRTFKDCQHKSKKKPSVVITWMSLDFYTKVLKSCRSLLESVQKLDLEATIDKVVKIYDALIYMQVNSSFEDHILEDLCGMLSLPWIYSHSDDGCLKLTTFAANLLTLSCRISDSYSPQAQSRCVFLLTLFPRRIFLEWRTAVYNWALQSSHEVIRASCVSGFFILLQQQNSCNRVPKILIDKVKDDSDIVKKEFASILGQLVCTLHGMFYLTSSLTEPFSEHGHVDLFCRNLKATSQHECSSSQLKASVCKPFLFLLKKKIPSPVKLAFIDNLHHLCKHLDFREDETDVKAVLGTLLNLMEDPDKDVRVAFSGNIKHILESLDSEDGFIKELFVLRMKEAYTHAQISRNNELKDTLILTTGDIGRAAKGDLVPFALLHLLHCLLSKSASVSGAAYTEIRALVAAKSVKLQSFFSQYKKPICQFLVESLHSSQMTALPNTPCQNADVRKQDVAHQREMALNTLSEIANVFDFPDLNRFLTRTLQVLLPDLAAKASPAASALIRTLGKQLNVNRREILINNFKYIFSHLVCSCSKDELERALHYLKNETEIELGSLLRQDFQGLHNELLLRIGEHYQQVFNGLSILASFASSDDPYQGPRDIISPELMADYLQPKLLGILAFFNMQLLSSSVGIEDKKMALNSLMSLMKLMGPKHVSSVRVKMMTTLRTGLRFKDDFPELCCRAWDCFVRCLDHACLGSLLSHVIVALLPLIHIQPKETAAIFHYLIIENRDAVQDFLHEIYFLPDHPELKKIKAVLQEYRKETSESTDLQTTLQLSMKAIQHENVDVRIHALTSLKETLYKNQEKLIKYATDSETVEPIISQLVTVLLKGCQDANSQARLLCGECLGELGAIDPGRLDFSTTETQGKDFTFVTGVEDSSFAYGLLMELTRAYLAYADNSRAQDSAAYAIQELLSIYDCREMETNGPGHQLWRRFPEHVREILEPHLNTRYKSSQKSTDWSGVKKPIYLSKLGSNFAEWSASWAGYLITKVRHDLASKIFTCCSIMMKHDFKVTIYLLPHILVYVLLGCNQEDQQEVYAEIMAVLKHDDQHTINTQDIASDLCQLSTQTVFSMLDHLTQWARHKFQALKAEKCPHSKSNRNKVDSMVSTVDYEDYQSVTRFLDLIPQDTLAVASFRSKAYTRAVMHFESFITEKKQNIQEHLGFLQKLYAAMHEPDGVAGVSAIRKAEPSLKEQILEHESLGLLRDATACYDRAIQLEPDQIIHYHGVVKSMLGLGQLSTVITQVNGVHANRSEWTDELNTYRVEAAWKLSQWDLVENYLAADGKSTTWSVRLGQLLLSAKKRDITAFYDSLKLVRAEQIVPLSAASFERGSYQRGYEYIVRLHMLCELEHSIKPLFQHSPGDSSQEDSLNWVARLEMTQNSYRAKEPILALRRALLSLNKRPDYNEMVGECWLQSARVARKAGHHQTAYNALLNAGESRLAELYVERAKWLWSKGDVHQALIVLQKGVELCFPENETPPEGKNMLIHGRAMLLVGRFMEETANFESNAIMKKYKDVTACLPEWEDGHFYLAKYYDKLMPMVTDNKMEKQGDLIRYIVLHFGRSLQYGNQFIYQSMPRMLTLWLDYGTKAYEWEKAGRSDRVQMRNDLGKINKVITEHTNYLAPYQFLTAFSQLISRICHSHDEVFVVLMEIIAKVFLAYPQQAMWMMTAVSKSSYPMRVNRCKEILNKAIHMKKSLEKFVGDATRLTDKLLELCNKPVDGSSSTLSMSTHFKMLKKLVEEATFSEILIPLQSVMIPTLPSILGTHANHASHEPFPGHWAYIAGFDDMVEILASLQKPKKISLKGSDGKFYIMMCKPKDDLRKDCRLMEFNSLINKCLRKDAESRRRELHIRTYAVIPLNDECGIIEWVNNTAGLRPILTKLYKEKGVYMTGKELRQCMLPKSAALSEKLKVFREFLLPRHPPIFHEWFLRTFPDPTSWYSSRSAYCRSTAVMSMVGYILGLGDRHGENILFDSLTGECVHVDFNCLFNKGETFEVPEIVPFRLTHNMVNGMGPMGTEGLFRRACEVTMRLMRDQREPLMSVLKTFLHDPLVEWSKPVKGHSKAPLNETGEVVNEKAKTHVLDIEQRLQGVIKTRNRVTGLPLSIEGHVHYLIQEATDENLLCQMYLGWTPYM
Chain of human ATR kinase (Q8WXE1 whole entry partner): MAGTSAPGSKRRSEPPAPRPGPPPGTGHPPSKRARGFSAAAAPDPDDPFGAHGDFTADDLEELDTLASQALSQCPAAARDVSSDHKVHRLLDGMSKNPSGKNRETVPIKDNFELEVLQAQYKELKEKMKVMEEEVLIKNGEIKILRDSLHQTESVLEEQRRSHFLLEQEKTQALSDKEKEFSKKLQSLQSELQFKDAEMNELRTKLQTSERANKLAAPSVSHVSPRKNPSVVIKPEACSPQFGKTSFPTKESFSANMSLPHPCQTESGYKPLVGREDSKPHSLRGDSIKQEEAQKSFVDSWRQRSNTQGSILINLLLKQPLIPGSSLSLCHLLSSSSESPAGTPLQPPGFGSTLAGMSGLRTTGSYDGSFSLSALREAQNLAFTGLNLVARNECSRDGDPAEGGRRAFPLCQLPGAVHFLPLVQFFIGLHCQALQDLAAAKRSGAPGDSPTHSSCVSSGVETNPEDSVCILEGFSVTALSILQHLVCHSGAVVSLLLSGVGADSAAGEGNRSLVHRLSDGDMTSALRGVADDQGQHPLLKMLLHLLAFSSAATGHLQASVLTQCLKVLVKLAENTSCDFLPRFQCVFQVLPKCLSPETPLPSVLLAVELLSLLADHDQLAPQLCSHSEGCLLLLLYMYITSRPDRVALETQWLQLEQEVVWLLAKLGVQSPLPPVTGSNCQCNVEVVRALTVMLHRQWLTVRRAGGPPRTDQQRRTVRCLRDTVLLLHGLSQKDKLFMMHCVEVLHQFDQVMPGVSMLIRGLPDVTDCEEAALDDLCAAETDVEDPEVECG
Protocol: IC50 values were determined to evaluate the inhibitory activity of the tested compounds on human ATR kinase.
ATR/ATRIP(h) was incubated in assay buffer containing 50 nM GST-cMyc-p53 and Mg/ATP (according to concentration required). The reaction was initiated by adding Mg/ATP mixture. After incubating for 30 min at room temperature, a stop solution containing EDTA to was added to terminate the reaction. Finally, detecting buffer containing d^2-labeled anti-GST monoclonal antibody and europium-labeled anti-phospho Ser15 antibody against phosphorylated p^53 were added. Then the plate was read in time-resolved fluorescence mode and homogeneous time resolution was performed.
The fluorescence (HTRF) signal was determined according to the formula HTRF=10000×(Em665 nm/Em620 nm).
IC50 data was analyzed using XLFit version 5.3 (ID Business Solutions). Non-linear regression analysis was used to fit the sigmoidal dose response (variable slope) curve.

tumor cell line LoVo = experiment: In vitro cell viability test (CellTiter-Glo), LoVo cell proliferation inhibition; format: cell-based; settings: Homo sapiens
Protocol: In this experiment, inhibitory effect of the compounds on cell proliferation was investigated by testing influence on cell viability in vitro in tumor cell line LoVo.
CellTiter-Glo Luminescence Cell Viability Test
The following protocols were performed according to instruction of PromegaCellTiter-Glo Luminescence cell viability test Kit (Promega-G7573). • (1) Thawing CellTiter-Glo buffer and allowing it to acclimate to room temperature. • (2) Allowing CellTiter-Glo substrate to acclimate to room temperature. • (3) Adding CellTiter-Glo buffer to a bottle of CellTiter-Glo substrate to dissolve the substrate to prepare CellTiter-Glo working solution. • (4) Vortexing slowly to full dissolution. • (5) Removing the cell culture plate and balancing it to room temperature for 30 min. • (6) Adding 50 μL (equivalent to half volume of cell culture medium in each well) of CellTiter-Glo working solution to each well, wrapping the cell plate with aluminum foil to protect from light. • (7) Shaking the culture plate on an orbital shaker for 2 min to induce cell lysis. • (8) Placing the culture plate at room temperature for 10 min to stabilize the luminescence signal. • (9) Detecting the luminescence signal on SpectraMax i3× of Molecular Devices plate reader. Data Analysis
The following formula was used to calculate the inhibition rate of the test compound (Inhibition rate, IR): IR(%)=(1−(RLU Compound−RLU Blank control)/(RLU Vehicle control−RLU Blank control))*100%.
The inhibition rates of different concentrations of compounds were calculated in Excel, and GraphPad Prism software was used to make the inhibition curve and calculate relevant parameters, including the minimum inhibition rate, the maximum inhibition rate and IC50.

[2] = mouse, plasma, 10 mg/kg oral gavage

| IC50 (human ATR kinase) [nM] | Structure (SMILES) | further results |
| --- | --- | --- |
| 69 | Cc1nnn(C)c1-c1cc(N2CCOC[C@H]2C)nc(-c2ccnc3[nH]ccc23)n1 [WX34] | AUC(0-t) ([1]; mouse, plasma, 1 mg/kg IV): 0.787 µM·h; clearance ([1]; mouse, plasma, 1 mg/kg IV): 53.9 mL/min/kg; half-life ([1]; mouse, plasma, 1 mg/kg IV): 1.22 h; C0 ([1]; mouse, plasma, 1 mg/kg IV, drug concentration at 0 min): 1260 nM; Vd ([1]; mouse, plasma, 1 mg/kg IV, read-out: Vdss): 3.72 L/kg; AUC(0-t) [1, 2]: 5.68 µM·h; Cmax [1, 2]: 2860 nM; half-life [1, 2]: 1.16 h; F ([1]; oral bioavailability, 10 mg/kg oral vs 1 mg/kg IV): 71.7% |
| 78 | Cc1nc(F)ccc1-c1cc(N2CCOC[C@H]2C)nc(-c2ccnc3[nH]ccc23)n1 [WX41] | – |
| 123 | Cc1c(-c2cc(N3CCOC[C@H]3C)nc(-c3ccnc4[nH]ccc34)n2)cnn1C [WX26] | – |
| 105 | Cc1nnc(C)n1-c1cc(-c2ccnc3[nH]ccc23)nc(N2CCOC[C@H]2C)c1 [WX48] | – |
| 12 | Cc1cnn(C)c1-c1cc(N2CCOC[C@H]2C)nc(-c2ccnc3[nH]ccc23)n1 [WX17] | – |
| 191 | CCn1nccc1-c1cc(-c2cc(F)cc3[nH]ccc23)nc(N2CCOC[C@H]2C)n1 [WX11] | – |
| 27 | Cc1nnc(C)n1-c1cc(-c2cc(F)cc3[nH]ccc23)nc(N2CCOC[C@H]2C)c1 [WX54] | – |
| 65 | Cc1ncn(C)c1-c1cc(N2CCOC[C@H]2C)nc(-c2ccnc3[nH]ccc23)n1 [WX44] | – |
| 28 | Cc1nnc(C)n1-c1cc(-c2cccc3[nH]ccc23)nc(N2CCOC[C@H]2C)c1 [WX57] | – |
| 65 | COCc1cnn(C)c1-c1cc(N2CCOC[C@H]2C)nc(-c2ccnc3[nH]ccc23)n1 [WX43] | – |
| 245 | C[C@@H]1COCCN1c1nc(-c2ccnc3[nH]ccc23)cc(-c2ccnn2C)n1 [WX06] | – |
| 15 | COc1cc(C)c(-c2cc(N3CCOC[C@H]3C)nc(-c3ccnc4[nH]ccc34)n2)cn1 [WX40] | – |
| 18 | Cc1nn(C)c(C)c1-c1cc(N2CCOC[C@H]2C)nc(-c2ccnc3[nH]ccc23)n1 [WX24] | – |
| 96 | C[C@@H]1COCCN1c1cc(-c2cnn(C)c2CO)nc(-c2ccnc3[nH]ccc23)n1 [WX29] | – |
| 41 | Cc1cnn(C)c1-c1cc(-c2cccc3[nH]ccc23)nc(N2CCOC[C@H]2C)n1 [WX12] | – |
| 81 | C[C@@H]1COCCN1c1cc(-c2ccnn2C)nc(-c2cc(F)cc3[nH]ccc23)n1 [WX19] | – |
| 47 | Cc1noc(C)c1-c1cc(N2CCOC[C@H]2C)nc(-c2ccnc3[nH]ccc23)n1 [WX28] | – |
| 46 | Cc1nnc(C)n1-c1cc(-c2cc(F)cc3[nH]ccc23)nc(N2CCOC[C@H]2C)n1 [WX56] | – |
| 20 | Cc1nnc(C)n1-c1cc(-c2cccc3[nH]ccc23)nc(N2CCOC[C@H]2C)n1 [WX55] | – |
| 35 | Cc1noc(C)c1-c1cc(-c2ccnc3[nH]ccc23)nc(N2CCOC[C@H]2C)c1 [WX30] | – |
| 64 | Cc1nnn(C2CC2)c1-c1cc(N2CCOC[C@H]2C)nc(-c2ccnc3[nH]ccc23)n1 [WX47] | IC50 (tumor cell line LoVo): 760 nM |
| 24 | Cc1cnn(C)c1-c1cc(N2CCOC[C@H]2C)nc(-c2cccc3[nH]ccc23)n1 [WX13] | – |
| 26 | Cc1nnn(C2CC2)c1-c1cc(N2CCOC[C@H]2C)nc(-c2cc(CO)cc3[nH]ccc23)n1 [WX49] | – |
| 72 | Cc1cc(-c2cc(N3CCOC[C@H]3C)nc(-c3cccc4[nH]ccc34)n2)n(C)n1 [WX03] | – |
| 91 | C[C@@H]1COCCN1c1nc(-c2cccc3[nH]ccc23)cc(-c2ccnn2C)n1 [WX04] | – |
| 50 | CCn1nccc1-c1cc(N2CCOC[C@H]2C)nc(-c2cccc3[nH]ccc23)n1 [WX14] | – |
| 123 | C[C@@H]1COCCN1c1cc(-c2cn(C)nc2C(F)(F)F)nc(-c2ccnc3[nH]ccc23)n1 [WX27] | – |

| IC50 (human ATR kinase) [nM] | Structure (SMILES) | further results |
| --- | --- | --- |
| 78 | Cc1nnn(C)c1-c1cc(-c2cc(CO)cc3[nH]ccc23)nc(N2CCOC[C@H]2C)c1 [WX38] | – |
| 198 | C[C@@H]1COCCN1c1cc(-c2ccnn2C)cc(-c2ccnc3[nH]ccc23)n1 [WX33] | – |
| 27 | Cc1cnn(C)c1-c1cc(N2CCOC[C@H]2C)nc(-c2cc(F)cc3[nH]ccc23)n1 [WX21] | – |
| 83 | Cc1cnn(C)c1-c1cc(N2CCOC[C@H]2C)nc(-c2cc(C(=O)O)cc3[nH]ccc23)n1 [WX53] | – |
| 35 | Cc1n[nH]c(C)c1-c1cc(-c2ccnc3[nH]ccc23)nc(N2CCOC[C@H]2C)c1 [WX32] | – |
| 97 | Cc1cc(-c2cc(N3CCOC[C@H]3C)nc(-c3ccnc4[nH]ccc34)n2)n(C)n1 [WX16] | – |
| 20 | Cc1cc(-c2nc(-c3c(C)nnn3C)cc(N3CCOC[C@H]3C)n2)c2cc[nH]c2c1 [WX52] | – |
| 80 | Cc1cnn(C)c1-c1cc(-c2cc(F)cc3[nH]ccc23)nc(N2CCOC[C@H]2C)n1 [WX10] | – |
| 369 | C[C@@H]1COCCN1c1nc(-c2cc(F)cc3[nH]ccc23)cc(-c2ccnn2C)n1 [WX09] | – |
| 83 | CCn1nccc1-c1cc(N2CCOC[C@H]2C)nc(-c2ccnc3[nH]ccc23)n1 [WX18] | – |
| 14 | Cc1nnn(C)c1-c1cc(N2CCOC[C@H]2C)nc(-c2cc(F)cc3[nH]ccc23)n1 [WX36] | – |
| – | C[C@@H]1COCCN1c1cc(C2([S@](C)(=N)=O)CC2)nc(-c2ccnc3[nH]ccc23)n1 [AZD6738, reference compound] | IC50 (tumor cell line LoVo): 820 nM |
| 53 | CCn1nccc1-c1cc(-c2cccc3[nH]ccc23)nc(N2CCOC[C@H]2C)n1 [WX05] | – |
| 72 | C[C@@H]1COCCN1c1cc(-c2ccnn2C)nc(-c2cccc3[nH]ccc23)n1 [WX02] | – |
| 32 | Cc1noc(C)c1-c1cc(N2CCOC[C@H]2C)nc(-c2cc(CO)cc3[nH]ccc23)n1 [WX51] | – |
| 69 | Cc1cc(-c2cc(N3CCOC[C@H]3C)nc(-c3cc(F)cc4[nH]ccc34)n2)n(C)n1 [WX20] | – |
| 92 | Cc1nn(C)cc1-c1cc(N2CCOC[C@H]2C)nc(-c2ccnc3[nH]ccc23)n1 [WX25] | – |
| 39 | Cc1cnn(C)c1-c1cc(-c2ccnc3[nH]ccc23)nc(N2CCOC[C@H]2C)c1 [WX31] | – |
| 115 | Cc1n[nH]c(C)c1-c1cc(N2CCOC[C@H]2C)nc(-c2ccnc3[nH]ccc23)n1 [WX23] | – |
| 126 | CCn1nccc1-c1cc(-c2ccnc3[nH]ccc23)nc(N2CCOC[C@H]2C)n1 [WX08] | – |
| 119 | C[C@@H]1COCCN1c1cc(-c2cccc3[nH]ccc23)nc(-c2ccnn2C)c1 [WX01] | – |
| 75 | Cc1cnn(C)c1-c1cc(-c2ccnc3[nH]ccc23)nc(N2CCOC[C@H]2C)n1 [WX07] | – |
| 16 | Cc1nnn(C)c1-c1cc(N2CCOC[C@H]2C)nc(-c2cc(CO)cc3[nH]ccc23)n1 [WX37] | – |
| 19 | Cc1nnn(C)c1-c1cc(N2CCOC[C@H]2C)nc(-c2cccc3[nH]ccc23)n1 [WX35] | – |
| 65 | CCn1nccc1-c1cc(N2CCOC[C@H]2C)nc(-c2cc(F)cc3[nH]ccc23)n1 [WX22] | – |
| 42 | Cc1nnn(C)c1-c1cc(-c2ccnc3[nH]ccc23)nc(N2CCOC[C@H]2C)c1 [WX39] | – |
